Measurements published in patent publication US20180111991A1, “MODULATORS OF ACTIVIN AND METHODS FOR MODULATING IMMUNE RESPONSES AND T FOLLICULAR HELPER CELLS” (LA JOLLA INSTITUTE FOR ALLERGY AND IMMUNOLOGY, priority 2014, published 2018).

Tests used:
Assay type in all cases: cell-based
human naïve CD4 T cells [1] = test: CCR7 expression by FACS on in vitro differentiated cells; settings: for CCR7 expression (MFI): activated CD4 T cells, day 5; for CCR7 downregulation (CCR7+CXCR5+ cells): with or without IL-12 (FIG. 10)
Procedure: (§1) For surface staining, primary-staining panels used for phenotypic analysis or for cell sorting known in the art were used. For the intranuclear staining: cells were treated with the FoxP3 Fixation/Permeabilization kit (eBioscience) and stained in Permeabilization buffer (eBioscience). For cytokine staining: day 3 or day 5 in vitro differentiated cells (specified in the main text or in figure legends) cells were stimulated for 5 hours at 37° C. with Phorbol 12-myristate 13-acetate (PMA, 25 ng/ml) and Ionomycin (1 μg/ml) in the presence of Brefeldin A (5 μg/ml). Cells were fixed with PBS 2% FBS, 1% PFA and permeabilized with PBS 2% FBS, 0.5% Saponin (from quillaja bark, Sigma-Aldrich). Samples were analyzed on a LSR Fortessa Cell Analyzer (BD, Bioscience). Flow cytometry data were analyzed with FlowJo (Tree Star). For cell sorting, cells were sorted using sorted using a FACS Aria (BD, Bioscience).
(§2) Unless differently specified, naïve CD4^+ T cells were enriched from PBMCs by magnetic bead negative selection with the Naïve CD4^+ T Cell Isolation Kit (Stem Cell Technologies). Purity (CD4^+CD45RA^+) was 90% or higher. Cells (7.5×10^4 cells/well) were activated by Dynabeads Human T-Activator CD3/CD28 (2 μl/well, Life Technologies) and cultured with recombinant human/mouse/rat activin A (50 ng/ml or 100 ng/ml), recombinant human IL-12 (5 ng/ml), recombinant human TGFβ (1 ng/ml), recombinant human IL-23 (10 ng/ml) or recombinant human IL-35 (10 ng/ml) in the presence of and recombinant human IL-7 (4 ng/ml) in AIM-V medium (Life Technologies). All cytokines were from R&D System and Peprotech. The 14 kDa mature human beta A chain of human activin A shares 100% amino acid sequence identity with bovine, feline, mouse, porcine, and rat beta A. Phenotype was quantified after 3 or 5 days, as specified in the main text of Figure legends. Similar results were obtained when using Treg-depleted FACS sorted naïve CD4 T cells, in which cells were sorted from total PBMCs by flow cytometry as CD19^−CD8^−CD14^−CD16^− CD4^+CD45RO^−CD25^− cells. For experiments quantifying supernatant CXCL13 concentration, cells were activated by plate-bound anti-human CD3 (5 μg/ml, BD) and ICOS-L (5 μg/ml, recombinant human B7-H2, R&D). CXCL13 concentrations were determined via human CXCL13 DuoSet ELISA (R&D) on supernatants harvested after 5 days of in vitro culture. For blocking experiments, cells were cultured with anti-activin A blocking mAb (5 μg/ml, clone 69403, R&D), anti-TGFβ mAb (100 μg/ml, clone 1D11.16.8, BioXcell), or equivalent concentration of mouse IgG1 isotype mAb (BioXcell). For blockade of IL-2, cells were cultured with anti-IL-2 blocking mAb (10 μg/ml, clone 5334, R&D) or mouse IgG1 isotype mAb (BioXcell).

human naïve CD4 T cells [2] = test: RNA sequencing and GSEA of in vitro differentiated CD4 T cells; settings: for expression of bona fide GC Tfh signature genes (GSEA): activin A or activin A+IL-12 versus beads, IL-12; for genes differentially upregulated, activin A+IL-12 versus TGFβ+IL-12: each cytokine combined with IL-12, RNA-seq day 3
Procedure: Differentiation of naïve CD4^+ T cells with activin A and/or IL-12 was described above. Naïve CD4 T cells from 4 or more donors were cultured with the following conditions: beads only (beads), IL-12, activin A (100 ng/ml), activin A (100 ng/ml)+IL-12, TGFβ, TGFβ+IL-12. After 3 days of in vitro culture, live CD4^+ T cells were sorted by FACS. Total RNA was purified using miRNAeasy Mini kit (Qiagen). Standard quality control steps were included to determine total RNA quality using Agilent Bioanalyzer (RNA integrity number (RIN)>8.5; Agilent RNA 6000 Nano Kit, USA) and quantity using a nanoliter spectrophotometer (Nanodrop, Thermofisher, USA). For every sample, 500 ng of purified total RNA was prepared into mRNA libraries, according to manufacturer's instructions, using the Truseq Stranded mRNA Library Prep Kit (Illumina, RS-122-2103). The resulting libraries were deep sequenced, using the Illumina HiSeq2500 system in rapid run mode, to obtain between 6 to 7 millions of 50-bp length single-end reads per library.
The single-end reads that passed Illumina filters were filtered for reads aligning to tRNA, rRNA, adapter sequences, and spike-in controls. The reads were then aligned to UCSC hg19 reference genome using TopHat^55(v 1.4.1). DUST scores were calculated with PRINSEQ Lite^56 (v 0.20.3) and low-complexity reads (DUST >4) were removed from the BAM files. The alignment results were parsed via the SAMtools^57 to generate SAM files. Read counts to each genomic feature were obtained with the htseq-count program^58 (v 0.6.0) using the “union” option. After removing absent features (zero counts in all samples), the raw counts were converted to RPKM value followed by quantile normalization via R library ‘aroma.light’ ^59. Then the quantile normalized RPKM values were filtered by setting a cutoff value of 1 and analyzed with the Multiplot module in GenePattern suite (http://www.broadinstitute.org/cancer/software/genepattern/) to generate the Volcano, Heatmap and Expression plots. Meanwhile the filtered raw counts were imported to R/Bioconductor package DESeq2^60 (v 3.1) to normalize counts and identify differentially expressed genes among conditions.
The tonsil GC Tfh gene set was generated from previously published microarray data^38 and defined by genes with more than two-fold higher expression in GC-Tfh cells (CD4^+CD45RO^+PD-1^hiCXCR5^hi) compared to non-Tfh cells (CD4^+CD45RO^+PD-1^−CXCR5^−). […] The signal-to-noise metric was used for ranking the genes in the RNA-seq expression datasets and 10^5 cycles of permutations on the phenotype labels were performed to determine the normalized enrichment score (NES).

human naïve CD4 T cells [3] = test: BCL6 intranuclear expression by FACS on in vitro differentiated cells; settings: for induction of Bcl6+CXCR5+ cells: titration with or without IL-12 (FIG. 11)
Procedure: as §1, §2

**Q.** For “activin A: commercial recombinant cytokine, homodimer of the INHBA gene product (inhibin beta A)”, which “CCR7 expression (MFI)” value (human naïve CD4 T cells [1]) is on record?
**A.** decreased CCR7 expression

**Q.** And the “CCR7 expression (MFI)” value (human naïve CD4 T cells [1]; listed as Activin A)?
**A.** sufficient to decrease CCR7 expression

**Q.** And the “CCR7 downregulation (CCR7+CXCR5+ cells)” value (human naïve CD4 T cells [1])?
**A.** influence CCR7 downregulation

**Q.** What about the “regulation of Tfh-signature genes LIF, LTA, PDCD1, TNF” value (human naïve CD4 T cells [2]; RNA-seq day 3, heat-map (FIG. 2K)) of the same substance?
**A.** major factor regulating several Tfh-signature genes such as LIF, LTA, PDCD1, and TNF

**Q.** What about the “expression of bona fide GC Tfh signature genes (GSEA)” value (human naïve CD4 T cells [2]) of the same substance?
**A.** imprinted with bona fide GC Tfh signature genes

**Q.** And the “expression of bona fide GC Tfh signature genes (GSEA)” value (human naïve CD4 T cells [2]; listed as Activin A)?
**A.** contributed more than IL-12 to driving expression of bona fide GC Tfh associated genes

**Q.** What about the “genes selectively upregulated versus beads only” value (human naïve CD4 T cells [2]; activin A+IL-12, RNA-seq day 3) of the same substance?
**A.** 116 genes

**Q.** And the “genes suppressed versus beads only” value (human naïve CD4 T cells [2]; activin A+IL-12, RNA-seq day 3)?
**A.** 60 genes

**Q.** And the “genes differentially upregulated, activin A+IL-12 versus TGFβ+IL-12” value (human naïve CD4 T cells [2])?
**A.** 35 genes

**Q.** And the Bcl6 protein expression (human naïve CD4 T cells [3]; activin A with or without IL-12, FACS intranuclear staining (FIG. 8C))?
**A.** significant expression of Bcl6, particularly when combined with IL-12

**Q.** And the BCL6 expression (human naïve CD4 T cells [3]; activin A+IL-12, day 5 (FIG. 2F))?
**A.** a fraction of CD4 T cells differentiated with activin A+IL-12 increased expression of BCL6

**Q.** And the “induction of Bcl6+CXCR5+ cells” value (human naïve CD4 T cells [3])?
**A.** No detectable induction of Bcl6

**Q.** For TGFβ, which “CCR7 downregulation (CCR7+CXCR5+ cells)” value (human naïve CD4 T cells [1]) is on record?
**A.** influence CCR7 downregulation

**Q.** What about the “genes differentially upregulated, activin A+IL-12 versus TGFβ+IL-12” value (human naïve CD4 T cells [2]) of the same substance?
**A.** 45 genes

**Q.** And the “induction of Bcl6+CXCR5+ cells” value (human naïve CD4 T cells [3])?
**A.** No detectable induction of Bcl6
